In patent US20110092526A1, “Adamantyl Iminocarbonyl-Substituted Pyrimidines As Inhibitors Of 11-Beta-HSD1 826” (ASTRAZENECA AB, priority 2009, published 2011):

Biological target: T1, human 11βHSD1 enzyme (Homo sapiens, UniProt P28845)
T1 construct: N terminal 6-His tagged full length human 11βHSD1 enzyme; 6-His (N); made in house
Assay: 11βHSD1 competitive HTRF assay (conversion of cortisone to cortisol)
Type: biochemical
Details: recombinant N terminal 6-His tagged full length human 11βHSD1; cortisone 160 nM; 25 minutes at 37° C.; pH 7.5
Description: The evaluation of compounds described herein was carried out using a baculovirus expressed N terminal 6-His tagged full length human 11βHSD1 enzyme (*1). The enzyme was purified from a detergent solublised cell lysate, using a copper chelate column. Inhibitors of 11βHSD1 reduce the conversion of cortisone to cortisol, which is identified by an increase in signal, in the above assay.
Compounds to be tested were dissolved in dimethyl sulphoxide (DMSO) to 10 mM and diluted further in assay buffer containing 1% DMSO to 10 fold the final assay concentration. Diluted compounds were then plated into black 384 well plates (Matrix, Hudson N.H., USA).
The assay plates were incubated for 25 minutes at 37° C. after which time the reaction was stopped by the addition of 10 μl of 0.5 mM glycerrhetinic acid plus conjugated cortisol (D2**). 10 μl of anti-cortisol Cryptate was then added and the plates sealed and incubated for 6 hours at room temperature. Fluorescence at 665 nm and 620 nm was measured and the 665 nm:620 nm ratio calculated using an Envision plate reader.
**D2 is a cortisol tracer which competes with native cortisol produced in the reaction for the monoclonal anti-cortisol antibody labelled with europium-cryptate. The antibody will fluoresce when it is bound to the cortisol tracer complex (D2 labelled with cortisol and glycyrrhetinic acid coupled together). Thus providing an accurate measure of 11beta-HSD1 activity.

T1 sequence (P28845 whole entry): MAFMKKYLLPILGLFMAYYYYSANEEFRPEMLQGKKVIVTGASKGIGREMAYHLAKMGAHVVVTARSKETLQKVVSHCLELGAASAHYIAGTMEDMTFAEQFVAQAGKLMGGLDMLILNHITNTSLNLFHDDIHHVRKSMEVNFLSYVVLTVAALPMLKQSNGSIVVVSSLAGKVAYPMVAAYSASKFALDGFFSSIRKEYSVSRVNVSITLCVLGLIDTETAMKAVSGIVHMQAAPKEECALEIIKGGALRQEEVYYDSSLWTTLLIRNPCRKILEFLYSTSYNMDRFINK

Row | SMILES | IC50 [nM]
1 | O=C(N[C@H]1C2CC3CC1C[C@@](O)(C3)C2)c1cnc(NC2CCS(=O)(=O)C2)nc1C1CCCC1 (stereo partly drawn) [Example 5, 4-cyclopentyl-2-[(1,1-dioxothiolan-3-yl)amino]-N-(5-hydroxy-2-adamantyl)pyrimidine-5-carboxamide] | 24
2 | CN1CC(Nc2ncc(C(=O)N[C@H]3C4CC5CC3C[C@@](O)(C5)C4)c(C3CCCC3)n2)CC1=O (stereo partly drawn) [Example 16, 4-cyclopentyl-N-(5-hydroxy-2-adamantyl)-2-[(1-methyl-5-oxo-pyrrolidin-3-yl)amino]pyrimidine-5-carboxamide] | 20
3 | CCN1CC(Nc2ncc(C(=O)N[C@H]3C4CC5CC3C[C@@](O)(C5)C4)c(C3CCCC3)n2)CC1=O (stereo partly drawn) [Example 17, 4-cyclopentyl-2-[(1-ethyl-5-oxo-pyrrolidin-3-yl)amino]-N-(5-hydroxy-2-adamantyl)pyrimidine-5-carboxamide] | 15
4 | CN1C(=O)CC[C@@H]1CNc1ncc(C(=O)N[C@H]2C3CC4CC2C[C@@](O)(C4)C3)c(C2CCCC2)n1 [Example 18, 4-cyclopentyl-N-(5-hydroxy-2-adamantyl)-2-[[(2R)-1-methyl-5-oxo-pyrrolidin-2-yl]methylamino]pyrimidine-5-carboxamide] | 23
5 | O=C(N[C@H]1C2CC3CC1C[C@@](O)(C3)C2)c1cnc(N[C@@H]2CCOC2)nc1N1CCCC1 [Example 37, N-(5-hydroxy-2-adamantyl)-4-pyrrolidin-1-yl-2-[[(3R)-tetrahydrofuran-3-yl]amino]pyrimidine-5-carboxamide] | 777
6 | O=C(N[C@H]1C2CC3CC1C[C@@](O)(C3)C2)c1cnc(N[C@H]2CCOC2)nc1N1CCCC1 [Example 38, N-(5-hydroxy-2-adamantyl)-4-pyrrolidin-1-yl-2-[[(3S)-tetrahydrofuran-3-yl]amino]pyrimidine-5-carboxamide] | 1600
7 | O=C(N[C@H]1C2CC3CC1C[C@@](O)(C3)C2)c1cnc(N[C@@H]2CCOC2)nc1-n1cccn1 [Example 39, N-(5-hydroxy-2-adamantyl)-4-pyrazol-1-yl-2-[[(3R)-tetrahydrofuran-3-yl]amino]pyrimidine-5-carboxamide] | 708
8 | O=C(N[C@H]1C2CC3CC1C[C@@](O)(C3)C2)c1cnc(N[C@H]2CCOC2)nc1-n1cccn1 [Example 40, N-(5-hydroxy-2-adamantyl)-4-pyrazol-1-yl-2-[[(3S)-tetrahydrofuran-3-yl]amino]pyrimidine-5-carboxamide] | 2270
9 | CN(C(=O)c1cnc(N[C@@H]2CCOC2)nc1C1CCCC1)[C@H]1C2CC3CC1C[C@@](O)(C3)C2 [Example 41, 4-Cyclopentyl-N-(5-hydroxy-2-adamantyl)-N-methyl-2-[[(3R)-oxolan-3-yl]amino]pyrimidine-5-carboxamide] | 46
10 | CN(C(=O)c1cnc(N[C@H]2CCOC2)nc1C1CCCC1)[C@H]1C2CC3CC1C[C@@](O)(C3)C2 [Example 42, 4-cyclopentyl-N-(5-hydroxy-2-adamantyl)-N-methyl-2-[[(3S)-oxolan-3-yl]amino]pyrimidine-5-carboxamide] | 32
11 | NC(=O)[C@]12CC3CC(C1)[C@H](NC(=O)c1cnc(N[C@H]4CCOC4)nc1C1CCCC1)C(C3)C2 [Example 43, N-(5-carbamoyl-2-adamantyl)-4-cyclopentyl-2-[[(3S)-tetrahydrofuran-3-yl]amino]pyrimidine-5-carboxamide] | 17
12 | O=C(N[C@H]1C2CC3CC1C[C@@](C(=O)O)(C3)C2)c1cnc(N[C@H]2CCOC2)nc1C1CCCC1 [Example 44, 4-[[4-cyclopentyl-2-[[(3S)-tetrahydrofuran-3-yl]amino]pyrimidine-5-carbonyl]amino]adamantane-1-carboxylic acid] | 424
13 | CS(=O)(=O)[C@]12CC3CC(C1)[C@H](NC(=O)c1cnc(N[C@H]4CCOC4)nc1C1CCCC1)C(C3)C2 [Example 45, 4-cyclopentyl-N-(5-methylsulfonyl-2-adamantyl)-2-[[(3S)-tetrahydrofuran-3-yl]amino]pyrimidine-5-carboxamide] | 273

The next lines start with the values.

Row | IC50 [nM] | SMILES
14 | 46 | CC(C)c1nc(N[C@H]2CCOC2)ncc1C(=O)N[C@H]1C2CC3CC1C[C@@](O)(C3)C2 [Example 20, N-(5-hydroxy-2-adamantyl)-4-isopropyl-2-[[(3S)-tetrahydrofuran-3-yl]amino]pyrimidine-5-carboxamide]
15 | 42 | CC(C)c1nc(N[C@@H]2CCOC2)ncc1C(=O)N[C@H]1C2CC3CC1C[C@@](O)(C3)C2 [Example 21, N-(5-hydroxy-2-adamantyl)-4-isopropyl-2-[[(3R)-tetrahydrofuran-3-yl]amino]pyrimidine-5-carboxamide]
16 | 25 | O=C(N[C@H]1C2CC3CC1C[C@@](O)(C3)C2)c1cnc(N[C@@H]2CCOC2)nc1C(F)(F)F [Example 22, N-(5-hydroxy-2-adamantyl)-2-[[(3R)-oxolan-3-yl]amino]-4-(trifluoromethyl)pyrimidine-5-carboxamide]
17 | 95 | O=C(N[C@H]1C2CC3CC1C[C@@](O)(C3)C2)c1cnc(N[C@H]2CCOC2)nc1C(F)(F)F [Example 23, N-(5-hydroxy-2-adamantyl)-2-[[(3S)-oxolan-3-yl]amino]-4-(trifluoromethyl)pyrimidine-5-carboxamide]
18 | 45 | CCOc1nc(N[C@@H]2CCOC2)ncc1C(=O)N[C@H]1C2CC3CC1C[C@@](O)(C3)C2 [Example 24, 4-Ethoxy-N-(5-hydroxy-2-adamantyl)-2-[[(3R)-tetrahydrofuran-3-yl]amino]pyrimidine-5-carboxamide]
19 | 37 | CCOc1nc(N[C@H]2CCOC2)ncc1C(=O)N[C@H]1C2CC3CC1C[C@@](O)(C3)C2 [Example 25, 4-Ethoxy-N-(5-hydroxy-2-adamantyl)-2-[[(3S)-tetrahydrofuran-3-yl]amino]pyrimidine-5-carboxamide]
20 | 19 | CCCOc1nc(N[C@@H]2CCOC2)ncc1C(=O)NC1C2CC3CC1CC(O)(C3)C2 (stereo partly drawn) [Example 33, N-(5-hydroxy-2-adamantyl)-4-propoxy-2-[[(3R)-tetrahydrofuran-3-yl]amino]pyrimidine-5-carboxamide]
21 | 21 | CCCOc1nc(N[C@H]2CCOC2)ncc1C(=O)N[C@H]1C2CC3CC1C[C@@](O)(C3)C2 [Example 34, N-(5-hydroxy-2-adamantyl)-4-propoxy-2-[[(3S)-tetrahydrofuran-3-yl]amino]pyrimidine-5-carboxamide]
